Assay results reported in US20120039844A1, “COMPOSITION AND USE OF N-ALPHA-METHYLHISTAMINE DIHYDROCHLORIDE FOR THE REDUCTION OF OXYGEN RADICAL FORMATION” (priority 2009, published 2012).

Experiments:
[1] = in the blood; cited from earlier work
B16 melanoma cells = assay: i.v. injected B16 melanoma in mice (lung tumor weight, pulmonary metastatic foci); assay type: in vivo; conditions: for tumor weight (wet lung weight at day 14) vs control mice: 24 hours before tumor cell inoculation, FIG. 4
Procedure: The anti-tumor properties of N-α-MH on i.v. injected B16 melanoma cells in mice were evaluated. One of N-α-MH, HDC, and a positive control were administered to the mice 24 hours before tumor cell inoculation as described by Hellstrand et al., J. Immunol., vol. 145, pp 4365-4370. Macroscopically visible pulmonary metastatic foci were counted fourteen days after the tumor cell inoculation. The tumor weight is the wet weight at day 14 of lungs from mice injected with tumor cells on day 0 as described by Hellstrand et al., J. Immunol., vol. 145, pp 4365-4370.

NK cells [2] = assay: CD69 expression on NK cells exposed to IL-2; assay type: cell-based; conditions: with human recombinant IL-2 50 U/ml, overnight; FIG. 3
Procedure: Three separate experiments were performed as described above with the addition of human recombinant IL-2 (50 U/ml) during the overnight incubation. The experiments were initiated with the aim at clarifying whether N-α-MH synergizes with IL-2 to activate NK cells in a fashion similar to HDC. The activation of NK cells by IL-2 was measured as the capacity of these cells to express the cell surface activation antigen CD69 (See, generally Hellstrand et al. JI 1994).

NK cells [3] = assay: Protection of NK cells from apoptosis inflicted by mononuclear phagocytes; assay type: cell-based, human; conditions: FIG. 2
Procedure: The ability of N-α-MH to protect NK cells from apoptosis inflicted by mononuclear phagocytes was evaluated. Cells were prepared as described by Hellstrand et al., J. Immunol., vol. 153, pp 4940-7, and mixtures of mononuclear phagocytes and NK cells were incubated overnight with HDC or N-α-MH at indicated final concentrations in 96-well microplates. Thereafter, cells were recovered and NK cells were analyzed for apoptosis (forward and side scatter) as described in Betten et al., J. Clin. Invest. Vol. 108, pp 1221-8 (hereby incorporated by reference in its entirety). FIG. 2 plots the results of six similar experiments.

[4] = tested on: human mononuclear phagocytes; assay: fMLF-induced oxygen radical formation (respiratory burst) in mononuclear phagocytes; assay type: cell-based; conditions: FIG. 1
H2 receptor = H2 receptor (Homo sapiens, UniProt P25021); conditions: Saitoh et al., Gut 2002; cited from earlier work
Chain of H2 receptor (P25021 whole entry): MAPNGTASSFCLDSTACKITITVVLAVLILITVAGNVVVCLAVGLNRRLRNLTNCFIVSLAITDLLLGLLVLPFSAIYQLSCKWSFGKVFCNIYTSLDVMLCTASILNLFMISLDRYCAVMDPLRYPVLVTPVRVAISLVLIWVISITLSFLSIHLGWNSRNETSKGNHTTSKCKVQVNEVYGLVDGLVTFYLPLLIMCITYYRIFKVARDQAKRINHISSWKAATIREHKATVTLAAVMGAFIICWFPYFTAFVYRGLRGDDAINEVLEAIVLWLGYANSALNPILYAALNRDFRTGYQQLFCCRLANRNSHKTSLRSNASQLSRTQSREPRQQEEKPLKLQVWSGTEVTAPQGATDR

H1 receptors = H1 receptors (Homo sapiens, UniProt P35367); conditions: cited from earlier work
Chain of H1 receptors (P35367 whole entry): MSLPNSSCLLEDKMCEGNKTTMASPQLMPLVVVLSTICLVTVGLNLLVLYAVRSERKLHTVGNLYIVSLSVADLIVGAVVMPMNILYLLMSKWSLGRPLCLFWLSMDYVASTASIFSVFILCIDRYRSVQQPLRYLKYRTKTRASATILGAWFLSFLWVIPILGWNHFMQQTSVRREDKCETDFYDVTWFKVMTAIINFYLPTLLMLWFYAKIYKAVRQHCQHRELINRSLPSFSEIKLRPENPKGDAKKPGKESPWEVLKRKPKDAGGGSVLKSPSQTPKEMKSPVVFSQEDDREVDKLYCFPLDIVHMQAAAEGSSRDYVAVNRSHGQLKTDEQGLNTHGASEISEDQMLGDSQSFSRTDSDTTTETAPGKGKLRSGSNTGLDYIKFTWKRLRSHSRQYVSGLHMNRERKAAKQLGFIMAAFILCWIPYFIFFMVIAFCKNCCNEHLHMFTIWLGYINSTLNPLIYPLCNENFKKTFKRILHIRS

Row | SMILES | half life [1] | tumor weight (wet lung weight at day 14) vs control mice (B16 melanoma cells; 50 mg/kg) | expression of CD69 on NK cells (NK cells [2]) | EC50 (NK cells [3]; Homo sapiens, overnight incubation with mononuclear phagocytes, six experiments, read-out: ED50 for protection of NK cells) [nM] | protection of NK cells from apoptosis, compared with HDC (NK cells [3]; in vitro) | inhibition of oxygen radical production ([4]; 5 min preincubation, then fMLF) | maximal response in terms of oxygen radical inhibition, compared with HDC ([4]; in vitro) | potency in stimulating cAMP production via the H2 receptor, compared with histamine (H2 receptor) | potency relative to HDC in reducing tumor weight in vivo (B16 melanoma cells; 5 mg/kg N-α-MH equal to 50 mg/kg histamine) | tumor weight (wet lung weight at day 14) vs control mice (B16 melanoma cells; 5 mg/kg) | extent of tumor reduction (lung metastases) compared with HDC at 50 mg/kg (B16 melanoma cells; 5 mg/kg, 14 days after inoculation, FIG. 5) | number of melanoma lung metastases vs control mice (B16 melanoma cells; 50 mg/kg, 14 days after inoculation, FIG. 5) | potency relative to HDC in reducing melanoma metastasis in vivo (B16 melanoma cells; FIG. 5) | potency relative to HDC in reducing tumor formation in vivo (B16 melanoma cells; mouse, in vivo) | activity at H1 receptors (H1 receptors)
1 | Cl.Cl.NCCc1c[nH]cn1 [HDC, histamine dihydrochloride] | five | significantly reduced tumor weight |  |  |  |  |  |  |  |  |  |  |  |  | 
2 | CNCCc1c[nH]cn1 [N-α-MH, N-alpha-methyl-histamine] |  | significantly reduced tumor weight | synergized with IL-2 to induce expression of CD69 on NK cells | 2200 | equally potent and effective at protecting NK cells from apoptosis as HDC | potent inhibitor of oxygen radical production | at least comparable to HDC | significantly more potent than histamine | about 10 times | significantly reduced tumor weight | about equal | significantly less lung metastases than control mice | approximately 10 times | approximately 10 times | little or no activity at H1 receptors
